Holding throughout (format): physicochemical
Series [1] is described as follows: Example 4: dissolved concentration after 1 hour of sonication, then stirring at 25° C. The settings on record: sonicated 1 hour, stirred at 25° C. As to the method: L-leucovorin calcium (Merck) or racemic leucovorin calcium (Sigma) was added to water or aqueous sodium chloride (0.83%) and sonicated for 1 hour. The mixture was then stirred for an additional 19 hours 25° C. The concentration of dissolved L-leucovorin calcium or racemic leucovorin calcium was determined at 15 min., 30 min., 1 hour, or 20 hours after stirring began.

Series [2] is described as follows: Example 5: dissolved concentration after sonication at 40° C. for about half an hour, then stirring at 25° C. for 20 hours. The note with it: sonicated at 40° C. about half an hour, stirred at 25° C. As to the method: L-leucovorin calcium (Merck) or racemic leucovorin calcium (USP) was added to water or aqueous sodium chloride (0.83%) and sonicated at 40° C. for about half an hour. The mixture was then stirred at 25° C. for 20 hours. The concentration of dissolved L-leucovorin calcium or racemic leucovorin calcium was determined at two hours and 20 hours.

A short description of series [3]: Example 6: dissolved concentration after sonication at 40° C. for one hour, stirring at 25° C., nitrogen purge and sealed vial after 2 hours. The note with it: sonicated at 40° C. one hour, stirred at 25° C. As for the experimental part: L-leucovorin calcium (Merck) or racemic leucovorin (USP) calcium was added to water or aqueous sodium chloride (0.83%) and sonicated at 40° C. for one hour to dissolve the L-leucovorin calcium or racemic leucovorin calcium. The solutions were then stirred at 25° C. for an additional hour. After 2 hours, the solutions were purged with nitrogen and placed in a sealed vial. The mixtures were then stirred for an additional 18 hours. The concentration of dissolved L-leucovorin calcium or racemic leucovorin calcium was determined at two hours and 20 hours after sonication began.

Series [4] in a line: Example 2: dissolved concentration after sonication at 40° C., then stirring at 5° C. for 20 hours. The note with it: sonicated at 40° C., stirred at 5° C. As for the experimental part: L-leucovorin calcium (Merck) or racemic leucovorin calcium (USP) was added to water or aqueous sodium chloride (0.83%) and sonicated at 40° C. to dissolve the L-leucovorin calcium or racemic leucovorin calcium. The solutions were then stirred at 5° C. for 20 hours. The concentration of dissolved L-leucovorin calcium or racemic leucovorin calcium was determined at 2 hours and 20 hours after stirring began.

Series [5] is described as follows: Example 1: dissolved concentration after about one hour of sonication, then stirring at 5° C. The note with it: sonicated about one hour, stirred at 5° C. As to the method: L-leucovorin calcium (Merck) or racemic leucovorin calcium (Sigma) was added to water or aqueous sodium chloride (0.83%) and sonicated for about one hour. The mixtures were then stirred for about 20 hours at 5° C. The concentration of dissolved L-leucovorin calcium or racemic leucovorin calcium was determined at 15 min., 30 min., 1 hour, and 20 hours after sonication began.

Series [6] is described as follows: Example 3: dissolved concentration after sonication at 40° C., stirring at 5° C., nitrogen purge and sealed vial at 2 hours. The note with it: sonicated at 40° C., stirred at 5° C. As for the experimental part: L-leucovorin calcium (Merck) or racemic leucovorin (USP) calcium was added to water or aqueous sodium chloride (0.83%) and sonicated at 40° C. to dissolve the L-leucovorin calcium or racemic leucovorin calcium. The solutions were then stirred at 5° C. for 15 hours. At 2 hours, the solutions were purged with nitrogen gas and placed in a sealed vial. The concentration of dissolved L-leucovorin calcium or racemic leucovorin calcium was determined at two hours and 15 hours after sonication began.

Consider three molecules from US9713616B2, “Pharmaceutical compositions comprising L-leucovorin” (Spectrum Pharmaceuticals, Inc., priority 2012, dated 2017).

Consider `Nc1nc(=O)c2c([nH]1)NCC(CNc1ccc(C(=O)NC(CCC(=O)O)C(=O)O)cc1)N2C=O` [L-Leucovorin, L-leucovorin calcium], for which the “Assay (concentration of dissolved compound)” value (from here on “Assay”) was determined as 14.9 mg/mL in series [1] (H2O, 15 min.); 15.1 mg/mL in series [1] (H2O, 30 min.); 16.1 mg/mL in series [1] (H2O, 1 hr); 23.6 mg/mL in series [1] (H2O, 20 hrs); 20.2 mg/mL in series [1] (NaCl (0.83%), 15 min.); 20.4 mg/mL in series [1] (NaCl (0.83%), 30 min.). The “Assay” value in series [1] (NaCl (0.83%), 1 hr) came out at 21.6 mg/mL; in series [1] (NaCl (0.83%), 20 hrs), 32.4 mg/mL; in series [2] (H2O, 2 hrs), 31.9 mg/mL; in series [2] (H2O, 20 hrs), 31.1 mg/mL; in series [2] (NaCl (0.83%), 2 hrs), 42.3 mg/mL; in series [2] (NaCl (0.83%), 20 hrs) it was 42.1 mg/mL. Also, the “Assay” value in series [3] (H2O, 2 hrs) came out at 40.4 mg/mL; in series [3] (H2O, 20 hrs), 42.3 mg/mL; in series [3] (NaCl (0.83%), 2 hrs), 49.2 mg/mL; in series [3] (NaCl (0.83%), 20 hrs) it was 53.1 mg/mL; in series [4] (H2O, 2 hrs), 31.9 mg/mL; in series [4] (H2O, 20 hrs) it was 26.2 mg/mL. In addition, the “Assay” value in series [4] (NaCl (0.83%), 2 hrs) was found to be 42.3 mg/mL; in series [4] (NaCl (0.83%), 20 hrs) it was 39.6 mg/mL; in series [5] (H2O, 15 min.) it was 7.5 mg/mL; in series [5] (H2O, 30 min.) it was 8.4 mg/mL; in series [5] (H2O, 1 hr) it was 8.0 mg/mL; in series [5] (H2O, 20 hrs) it was 11.9 mg/mL. For the same molecule, the “Assay” value in series [5] (NaCl (0.83%), 15 min.) came to 9.6 mg/mL; in series [5] (NaCl (0.83%), 30 min.), 10.0 mg/mL; in series [5] (NaCl (0.83%), 1 hr), 13.4 mg/mL; in series [5] (NaCl (0.83%), 20 hrs), 17.4 mg/mL; in series [6] (H2O, 2 hrs) it was 40.4 mg/mL; in series [6] (H2O, 15 hrs) it was 21.2 mg/mL. Also, the “Assay” value in series [6] (NaCl (0.83%), 2 hrs) was 49.2 mg/mL; in series [6] (NaCl (0.83%), 15 hrs) it was 35.6 mg/mL.

In the case of `Nc1nc(=O)c2c([nH]1)NCC(CNc1ccc(C(=O)N[C@@H](CCC(=O)[O-])C(=O)[O-])cc1)N2C=O.[Ca+2]` (mixture of isomers) [USP Leucovorin Calcium, racemic leucovorin calcium], the “Assay” value came out at 13.4 mg/mL in series [2] (H2O, 20 hrs); 17.4 mg/mL in series [2] (NaCl (0.83%), 20 hrs); 10.1 mg/mL in series [3] (H2O, 2 hrs); 10.8 mg/mL in series [3] (H2O, 20 hrs); 16.1 mg/mL in series [3] (NaCl (0.83%), 2 hrs); 17.1 mg/mL in series [3] (NaCl (0.83%), 20 hrs). Besides, the “Assay” value in series [4] (H2O, 20 hrs) is 4.2 mg/mL; in series [4] (NaCl (0.83%), 20 hrs), 7.2 mg/mL; in series [6] (H2O, 2 hrs) it was 3.6 mg/mL; in series [6] (H2O, 15 hrs), 3.8 mg/mL; in series [6] (NaCl (0.83%), 2 hrs), 8.4 mg/mL; in series [6] (NaCl (0.83%), 15 hrs), 8.6 mg/mL.

In the case of `Nc1nc(=O)c2c([nH]1)NCC(CNc1ccc(C(=O)N[C@@H](CCC(=O)[O-])C(=O)[O-])cc1)N2C=O.[Ca+2]` (mixture of isomers) [Sigma Leucovorin Calcium, racemic leucovorin calcium], the “Assay” value in series [1] (H2O, 15 min.) is given as 52.9 mg/mL; in series [1] (H2O, 30 min.) it was 53.3 mg/mL; in series [1] (H2O, 1 hr) it was 50.1 mg/mL; in series [1] (H2O, 20 hrs) it was 9.0 mg/mL; in series [1] (NaCl (0.83%), 15 min.) it was 42.1 mg/mL; in series [1] (NaCl (0.83%), 30 min.), 41.9 mg/mL. The “Assay” value in series [1] (NaCl (0.83%), 1 hr) was found to be 39.6 mg/mL; in series [1] (NaCl (0.83%), 20 hrs), 14.2 mg/mL; in series [5] (H2O, 15 min.), 16.7 mg/mL; in series [5] (H2O, 30 min.), 22.0 mg/mL; in series [5] (H2O, 1 hr), 15.8 mg/mL; in series [5] (H2O, 20 hrs), 3.3 mg/mL. The “Assay” value in series [5] (NaCl (0.83%), 15 min.) is recorded as 22.6 mg/mL; in series [5] (NaCl (0.83%), 30 min.), 22.9 mg/mL; in series [5] (NaCl (0.83%), 1 hr), 23.2 mg/mL; in series [5] (NaCl (0.83%), 20 hrs) it was 7.4 mg/mL.
